Reference: PubChem BioAssay (NCI)
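Values below derive from 48-hour exposures of cells grown in 96-well plates, with endpoints linearly interpolated between the two concentrations bracketing the appropriate inhibition level. TGI: total growth inhibition.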

Key:
Assay in all cases: NCI tumour cell line growth inhibition, 48 h
COLO 205 colon = system: COLO 205 colon
HCC-2998 colon = system: HCC-2998 colon
HCT-15 colon = system: HCT-15 colon
IGROV1 ovarian = system: IGROV1 ovarian
MALME-3M melanoma = system: MALME-3M melanoma
NCI-H522 lung = system: NCI-H522 lung
OVCAR-4 ovarian = system: OVCAR-4 ovarian
OVCAR-5 ovarian = system: OVCAR-5 ovarian
RXF 393 renal = system: RXF 393 renal
SF-295 CNS = system: SF-295 CNS
SK-MEL-5 melanoma = system: SK-MEL-5 melanoma
TK-10 renal = system: TK-10 renal
U251 CNS = system: U251 CNS
UACC-257 melanoma = system: UACC-257 melanoma
UO-31 renal = system: UO-31 renal
SR leukemia = system: SR leukemia

Structure (SMILES)	TGI (COLO 205 colon)	TGI (HCC-2998 colon)	TGI (HCT-15 colon)	TGI (IGROV1 ovarian)	TGI (MALME-3M melanoma)	TGI (NCI-H522 lung)	TGI (OVCAR-4 ovarian)	TGI (OVCAR-5 ovarian)	TGI (RXF 393 renal)	TGI (SF-295 CNS)	TGI (SK-MEL-5 melanoma)	TGI (TK-10 renal)	TGI (U251 CNS)	TGI (UACC-257 melanoma)	TGI (UO-31 renal)	TGI (SR leukemia)
Nc1cn(Cc2ccccc2)c2nc(/C=C3/C=CC=CC3=O)c(O)n12	> 100 µM	> 100 µM	> 100 µM	> 100 µM	> 100 µM	> 100 µM	> 100 µM	> 100 µM	> 100 µM	> 100 µM	> 100 µM	> 100 µM	> 100 µM	> 100 µM	> 100 µM	–
COC(=O)C1=C(\c2ccccc2)c2ccccc2C(=O)N(C2CCCCC2)/C=C\1	28.8 µM	62 µM	> 100 µM	> 100 µM	68.6 µM	> 100 µM	> 100 µM	> 100 µM	–	> 100 µM	24.3 µM	> 100 µM	63.1 µM	41.5 µM	> 100 µM	–
Cc1cccc(C)c1NC(=S)NC=C(C(N)=O)C(N)=O	> 100 µM	> 100 µM	> 100 µM	> 100 µM	–	> 100 µM	> 100 µM	> 100 µM	> 100 µM	> 100 µM	> 100 µM	> 100 µM	> 100 µM	> 100 µM	> 100 µM	–
O=C1CCC2CCC1C2 (stereo not drawn)	> 100 µM	> 100 µM	> 100 µM	–	> 100 µM	–	> 100 µM	> 100 µM	> 100 µM	> 100 µM	> 100 µM	> 100 µM	> 100 µM	> 100 µM	> 100 µM	–
N#Cc1sc2c(c1OC(=O)c1cccs1)c(=O)n(-c1ccccc1)c(=S)n2-c1ccccc1	42.5 µM	–	40 µM	39.4 µM	40.7 µM	34.3 µM	73.5 µM	–	31.9 µM	55.8 µM	29.5 µM	> 100 µM	55.5 µM	> 100 µM	32.7 µM	71.4 µM
CC(=O)N(CCc1ccccc1)C(C#N)c1ccc(OCCCCCCCCCCOc2ccc(C(C#N)N(CCc3ccccc3)C(C)=O)cc2)cc1 (stereo not drawn)	> 100 µM	> 100 µM	> 100 µM	> 100 µM	> 100 µM	–	44.2 µM	> 100 µM	63.2 µM	51.6 µM	> 100 µM	> 100 µM	64.1 µM	> 100 µM	> 100 µM	–
N#Cc1c(Cl)/c(=C/O)c(=O)n2c1nc1ccccc12	> 100 µM	> 100 µM	> 100 µM	> 100 µM	> 100 µM	> 100 µM	> 100 µM	91.7 µM	–	> 100 µM	> 100 µM	> 100 µM	> 100 µM	> 100 µM	> 100 µM	–
O=C(c1ccco1)N(C(=S)N1CCN(c2ccccn2)CC1)C1CCCCC1	> 100 µM	–	> 100 µM	> 100 µM	> 100 µM	> 100 µM	> 100 µM	> 100 µM	> 100 µM	> 100 µM	> 100 µM	> 100 µM	> 100 µM	> 100 µM	> 100 µM	> 100 µM
C(=NCc1ccccc1)c1ccccc1-c1ccccc1C=NCc1ccccc1	> 10 µM	–	> 10 µM	> 10 µM	> 10 µM	> 10 µM	> 10 µM	> 10 µM	> 10 µM	> 10 µM	> 10 µM	> 10 µM	> 10 µM	7.53 µM	> 10 µM	> 10 µM
O=c1oc2ccccc2c(O)c1C(c1ccc(/C=C/c2ccccc2)cc1)c1c(O)c2ccccc2oc1=O	71.8 µM	45.2 µM	> 100 µM	> 100 µM	65.7 µM	49.1 µM	> 100 µM	–	–	–	74.4 µM	> 100 µM	43.9 µM	> 100 µM	41.1 µM	–
COc1ccc(C2=C(N)c3c(OC)cccc3C2=O)cc1	> 100 µM	> 100 µM	> 100 µM	> 100 µM	> 100 µM	–	> 100 µM	> 100 µM	31.5 µM	> 100 µM	–	–	> 100 µM	–	> 100 µM	> 100 µM
CCC1=CC2Cc3nc4cc(Cl)ccc4c(N)c3C(C1)C2 (stereo not drawn)	7.11 µM	3.69 µM	> 37.7 µM	20.7 µM	9.46 µM	16.1 µM	17.2 µM	15.4 µM	8.15 µM	12.2 µM	4.05 µM	13.6 µM	25.3 µM	4.72 µM	20.6 µM	–
COc1cc(C2c3cc4c(cc3OC(Nc3ccccc3)C2C)OCO4)cc(OC)c1OC (stereo not drawn)	14.5 µM	> 26.6 µM	> 21.6 µM	> 100 µM	> 100 µM	2.04 µM	> 100 µM	> 100 µM	> 100 µM	3.52 µM	–	> 100 µM	21.3 µM	> 86.2 µM	> 100 µM	–
O=C1c2ccccc2-c2ccc(N=Nc3c(O)ccc4ccccc34)cc21	> 100 µM	–	> 100 µM	> 100 µM	> 100 µM	> 100 µM	> 100 µM	> 100 µM	> 100 µM	> 100 µM	> 100 µM	> 100 µM	> 100 µM	> 100 µM	> 100 µM	–
O=C(C1C(c2ccccc2)N1C(c1ccccc1)c1ccccc1)C1C(c2ccccc2)N1C(c1ccccc1)c1ccccc1 (stereo not drawn)	–	37.8 µM	–	–	–	23.7 µM	> 100 µM	81.2 µM	–	> 100 µM	49.8 µM	60.9 µM	71.8 µM	40.3 µM	38.4 µM	16.6 µM
N#CC(Nc1ccccc1)c1ccc(C(C#N)Nc2ccccc2)cc1 (stereo not drawn)	> 100 µM	> 100 µM	> 100 µM	> 100 µM	> 100 µM	> 100 µM	> 100 µM	> 100 µM	> 100 µM	> 100 µM	> 100 µM	> 100 µM	> 100 µM	> 100 µM	> 100 µM	–

Structure (SMILES)	TGI (COLO 205 colon)	TGI (HCC-2998 colon)	TGI (HCT-15 colon)	TGI (IGROV1 ovarian)	TGI (MALME-3M melanoma)	TGI (NCI-H522 lung)	TGI (OVCAR-4 ovarian)	TGI (OVCAR-5 ovarian)	TGI (RXF 393 renal)	TGI (SF-295 CNS)	TGI (SK-MEL-5 melanoma)	TGI (TK-10 renal)	TGI (U251 CNS)	TGI (UACC-257 melanoma)	TGI (UO-31 renal)	TGI (SR leukemia)
COC(=O)C(=O)C(C(=O)C(=O)Nc1ccccc1C(C)=O)c1nc2ccc(C(=O)c3ccccc3)cc2[nH]c1=O (stereo not drawn)	–	> 100 µM	> 100 µM	> 100 µM	> 100 µM	> 100 µM	> 100 µM	> 100 µM	> 100 µM	> 100 µM	> 100 µM	> 100 µM	–	> 100 µM	> 100 µM	–
COc1ccc2c(c1)CCc1[nH]c3ccccc3c1CCCC2	> 10 µM	> 10 µM	> 10 µM	> 10 µM	> 10 µM	> 10 µM	> 10 µM	> 10 µM	–	> 10 µM	> 10 µM	> 10 µM	> 10 µM	> 10 µM	–	> 10 µM
Cn1c(Nc2ccccc2)c(C=Nc2ccccc2)c(=O)n(C)c1=O	–	–	–	> 100 µM	–	–	> 100 µM	> 100 µM	> 100 µM	> 100 µM	–	> 100 µM	> 100 µM	> 100 µM	> 100 µM	–
CCOC(=O)C1C(c2ccc(OC)cc2)c2c([nH][nH]c2=O)CC1(O)OCC (stereo not drawn)	> 100 µM	> 100 µM	> 100 µM	> 100 µM	> 100 µM	> 100 µM	> 100 µM	> 100 µM	–	> 100 µM	> 100 µM	> 100 µM	> 100 µM	> 100 µM	> 100 µM	> 100 µM
C/C(=N/O)c1cccc(Nc2nc3ccc(Cl)cc3c3[nH]c4ccccc4c23)c1	4.15 µM	–	5.03 µM	11.5 µM	–	3.26 µM	4.82 µM	6.83 µM	3.27 µM	4.32 µM	2.56 µM	6.51 µM	9.94 µM	12.1 µM	8.86 µM	> 100 µM
CC1=C(C(=O)NCCc2ccccc2)CC(C(=O)NCCc2ccccc2)=C(C)N1	> 100 µM	> 100 µM	> 100 µM	> 100 µM	–	> 100 µM	> 100 µM	> 100 µM	> 100 µM	> 100 µM	–	> 100 µM	> 100 µM	> 100 µM	> 100 µM	–
COc1cc(NP(=O)(Oc2ccccc2)Oc2ccccc2)ccc1Nc1c2ccccc2nc2c1[nH]c1ccccc12	> 43 µM	23.2 µM	> 37.3 µM	> 100 µM	29.1 µM	7.32 µM	15.3 µM	30.2 µM	14.1 µM	13.1 µM	10.3 µM	12.3 µM	6.85 µM	> 48.5 µM	16.6 µM	–
CSC1=N/C(=C\c2ccco2)C(=O)N1CN1CCCCC1	> 100 µM	–	> 100 µM	> 100 µM	> 100 µM	> 100 µM	–	> 100 µM	–	> 100 µM	> 100 µM	> 100 µM	> 100 µM	–	> 100 µM	> 100 µM
COc1cc(C=Nc2ccc(C(C)C)cc2)cc(OC)c1OC	> 100 µM	–	> 100 µM	> 100 µM	> 100 µM	> 100 µM	> 100 µM	> 100 µM	> 100 µM	> 100 µM	> 100 µM	> 100 µM	> 100 µM	> 100 µM	> 100 µM	> 100 µM
CCSC1=N/C(=C\c2ccco2)C(Cl)=N1	> 100 µM	–	> 100 µM	> 100 µM	–	–	–	> 100 µM	–	> 100 µM	> 100 µM	> 100 µM	> 100 µM	> 100 µM	> 100 µM	> 100 µM
NC(=O)C(c1ccccc1)N1OC2C(=O)N(c3cccc4ccccc34)C(=O)C2C1c1c2ccccc2c(Cl)c2ccccc12 (stereo not drawn)	14.9 µM	–	16.4 µM	39.8 µM	35.7 µM	44.3 µM	33.2 µM	19.3 µM	16.8 µM	23.9 µM	11.2 µM	22.8 µM	15.9 µM	15.7 µM	20.3 µM	3.8 µM
C#C[C@]1(O)CCC2C3CCc4cc(Oc5nc(F)nc(-c6c7cc8ccccc8cc7c7n6CCS7)n5)ccc4C3CCC21C (stereo partly drawn)	42.2 µM	> 100 µM	–	> 100 µM	> 100 µM	62.7 µM	–	–	> 100 µM	> 100 µM	> 100 µM	> 100 µM	> 100 µM	> 100 µM	> 100 µM	–
COc1ccc(NC(C)=O)cc1C1CCC(=O)N1 (stereo not drawn)	> 100 µM	> 100 µM	> 100 µM	> 100 µM	> 100 µM	> 100 µM	> 100 µM	> 100 µM	–	> 100 µM	> 100 µM	> 100 µM	> 100 µM	> 100 µM	> 100 µM	–
COc1cc(C2C3=C(COC3=O)Oc3cc4c(cc32)OCO4)ccc1OC(C)=O (stereo not drawn)	0.602 µM	5.96 µM	> 100 µM	–	0.565 µM	–	> 29.8 µM	> 100 µM	> 100 µM	–	> 100 µM	> 100 µM	> 100 µM	> 100 µM	> 100 µM	–
CCCN1CN(C(C(=O)N[C@@H]2C(=O)N3C(C(=O)O)=C(C)CSC23)c2ccc(O)cc2)CSC1=S (stereo partly drawn)	> 100 µM	–	> 100 µM	> 100 µM	> 100 µM	> 100 µM	> 100 µM	> 100 µM	–	> 100 µM	> 100 µM	> 100 µM	> 100 µM	> 100 µM	> 100 µM	–
O=C(c1cccs1)N(C(=S)N1CCN(c2ccccn2)CC1)C1CCCCC1	46.8 µM	–	> 100 µM	> 100 µM	> 100 µM	> 100 µM	> 100 µM	> 100 µM	> 100 µM	> 100 µM	> 100 µM	> 100 µM	> 100 µM	> 100 µM	> 100 µM	> 100 µM
